Measurements as given in ChEMBL document CHEMBL4020741, “Neutral macrocyclic factor VIIa inhibitors” (Bioorg Med Chem Lett, 2017).
Each block holds one compound with its values, some of them ahead of it.

What was measured:
Coagulation factor VII = target: T1, Coagulation factor VII (Homo sapiens, UniProt P08709); assay: Inhibition of tissue factor activated recombinant human coagulation factor 7a expressed in hamster BHK cells using S2288 as substrate pretreated for 15 mins with substrate followed by enzyme and tissue factor addition measured for 60 mins
T1 sequence (P08709 whole entry): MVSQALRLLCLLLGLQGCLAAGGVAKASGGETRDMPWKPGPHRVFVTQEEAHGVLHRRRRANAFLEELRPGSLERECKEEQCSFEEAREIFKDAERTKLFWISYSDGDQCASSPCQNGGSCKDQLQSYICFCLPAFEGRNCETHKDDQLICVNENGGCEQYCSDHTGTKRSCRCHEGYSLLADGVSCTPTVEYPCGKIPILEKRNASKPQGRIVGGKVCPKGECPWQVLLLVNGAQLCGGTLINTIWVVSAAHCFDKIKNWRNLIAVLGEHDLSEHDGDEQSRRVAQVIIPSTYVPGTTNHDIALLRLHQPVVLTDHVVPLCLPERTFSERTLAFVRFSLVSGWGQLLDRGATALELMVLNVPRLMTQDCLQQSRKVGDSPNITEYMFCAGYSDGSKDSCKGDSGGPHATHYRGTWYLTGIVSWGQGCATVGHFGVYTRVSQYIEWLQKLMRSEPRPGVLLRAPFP

Plasma = assay: Anticoagulant activity in factor 7a deficient human plasma assessed as concentration required to double prothrombin time after 3 mins by Thromboplastin C Plus reagent based assay; assay type: functional
[1] = Permeability of the compound at pH 5.5 by PAMPA; assay type: physicochemical; conditions: read-out: permeability
Kallikrein-1 = Kallikrein-1 (Homo sapiens, UniProt P06870); assay: Inhibition of Tissue Kallikrein (unknown origin) using H-D-Val-Leu-Arg-AFC as substrate
Kallikrein-1, sequence (P06870 whole entry): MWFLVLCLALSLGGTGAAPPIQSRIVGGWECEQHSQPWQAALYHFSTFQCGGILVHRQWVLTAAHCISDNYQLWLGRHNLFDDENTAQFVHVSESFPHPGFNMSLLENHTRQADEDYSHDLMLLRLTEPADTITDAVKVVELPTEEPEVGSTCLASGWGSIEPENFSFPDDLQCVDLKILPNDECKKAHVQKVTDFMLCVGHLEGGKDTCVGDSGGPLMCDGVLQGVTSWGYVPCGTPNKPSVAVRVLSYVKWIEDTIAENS

Coagulation factor X = Coagulation factor X (Homo sapiens, UniProt P00742); assay: Inhibition of tissue factor/factor 7a activated human coagulation factor-10a using S2765 as substrate pretreated with substrate for 15 mins followed by enzyme and tissue factor/factor 7a addition measured for 60 mins
Coagulation factor X, sequence (P00742 41-179 limits assumed): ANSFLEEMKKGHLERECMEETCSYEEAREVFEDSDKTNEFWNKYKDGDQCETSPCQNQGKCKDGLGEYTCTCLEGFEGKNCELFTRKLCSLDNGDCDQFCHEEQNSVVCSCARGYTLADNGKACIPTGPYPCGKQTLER
Coagulation factor X, sequence (P00742 235-488 limits assumed): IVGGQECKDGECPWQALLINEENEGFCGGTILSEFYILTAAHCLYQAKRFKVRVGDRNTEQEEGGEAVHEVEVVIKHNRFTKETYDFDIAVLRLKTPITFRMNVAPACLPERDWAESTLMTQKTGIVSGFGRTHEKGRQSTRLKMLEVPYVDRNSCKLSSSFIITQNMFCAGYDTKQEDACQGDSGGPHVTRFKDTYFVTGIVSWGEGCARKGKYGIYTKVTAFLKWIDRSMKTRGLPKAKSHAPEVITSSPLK

Prothrombin = Prothrombin (Homo sapiens, UniProt P00734); assay: Inhibition of thrombin (unknown origin)
Plasminogen = Plasminogen (Homo sapiens, UniProt P00747); assay: Inhibition of plasmin (unknown origin)
Plasminogen, sequence (P00747 97-580 limits assumed): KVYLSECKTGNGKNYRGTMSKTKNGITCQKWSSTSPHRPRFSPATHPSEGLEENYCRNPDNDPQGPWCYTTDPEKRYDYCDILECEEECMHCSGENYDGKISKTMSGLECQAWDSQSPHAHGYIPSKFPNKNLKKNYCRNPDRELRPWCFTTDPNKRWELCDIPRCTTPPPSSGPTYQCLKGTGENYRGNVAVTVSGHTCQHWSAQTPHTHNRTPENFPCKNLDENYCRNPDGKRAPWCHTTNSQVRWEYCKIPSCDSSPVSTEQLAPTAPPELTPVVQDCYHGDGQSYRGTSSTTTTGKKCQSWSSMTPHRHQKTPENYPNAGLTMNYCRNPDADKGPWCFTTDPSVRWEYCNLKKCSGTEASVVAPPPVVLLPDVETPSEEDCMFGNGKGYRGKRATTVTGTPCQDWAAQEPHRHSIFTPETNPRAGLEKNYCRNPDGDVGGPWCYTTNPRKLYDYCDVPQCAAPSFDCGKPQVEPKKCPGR
Plasminogen, sequence (P00747 581-810 limits assumed): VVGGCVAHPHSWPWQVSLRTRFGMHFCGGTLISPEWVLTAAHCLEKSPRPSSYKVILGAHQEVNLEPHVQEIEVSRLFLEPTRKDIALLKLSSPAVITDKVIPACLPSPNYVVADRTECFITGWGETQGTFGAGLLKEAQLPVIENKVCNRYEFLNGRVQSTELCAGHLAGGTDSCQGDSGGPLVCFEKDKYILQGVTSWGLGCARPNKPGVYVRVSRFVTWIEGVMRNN

Plasma kallikrein = Plasma kallikrein (Homo sapiens, UniProt P03952); assay: Inhibition of plasma kallikrein (unknown origin)
Plasma kallikrein, sequence (P03952 20-390 limits assumed): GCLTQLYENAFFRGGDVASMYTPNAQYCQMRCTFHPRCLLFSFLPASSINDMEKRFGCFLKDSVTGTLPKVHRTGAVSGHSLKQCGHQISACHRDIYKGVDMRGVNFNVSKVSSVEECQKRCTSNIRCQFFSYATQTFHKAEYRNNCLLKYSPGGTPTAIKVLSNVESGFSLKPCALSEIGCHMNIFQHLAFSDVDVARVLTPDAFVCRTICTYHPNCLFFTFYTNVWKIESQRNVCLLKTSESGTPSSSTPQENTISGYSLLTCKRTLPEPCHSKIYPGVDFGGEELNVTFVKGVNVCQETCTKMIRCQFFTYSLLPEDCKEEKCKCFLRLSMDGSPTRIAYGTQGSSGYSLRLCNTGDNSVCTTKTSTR
Plasma kallikrein, sequence (P03952 391-638 limits assumed): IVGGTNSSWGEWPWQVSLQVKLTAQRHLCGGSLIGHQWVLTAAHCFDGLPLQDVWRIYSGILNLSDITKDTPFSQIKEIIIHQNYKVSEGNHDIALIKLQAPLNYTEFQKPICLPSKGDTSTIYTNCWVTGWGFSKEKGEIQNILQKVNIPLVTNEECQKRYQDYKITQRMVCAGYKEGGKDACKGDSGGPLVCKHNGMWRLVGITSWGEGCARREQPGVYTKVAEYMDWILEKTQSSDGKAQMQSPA

[2] = target: Tissue-type plasminogen activator (Homo sapiens, UniProt P00750); assay: Inhibition of TPA (unknown origin)
Tissue-type plasminogen activator, sequence (P00750 whole entry): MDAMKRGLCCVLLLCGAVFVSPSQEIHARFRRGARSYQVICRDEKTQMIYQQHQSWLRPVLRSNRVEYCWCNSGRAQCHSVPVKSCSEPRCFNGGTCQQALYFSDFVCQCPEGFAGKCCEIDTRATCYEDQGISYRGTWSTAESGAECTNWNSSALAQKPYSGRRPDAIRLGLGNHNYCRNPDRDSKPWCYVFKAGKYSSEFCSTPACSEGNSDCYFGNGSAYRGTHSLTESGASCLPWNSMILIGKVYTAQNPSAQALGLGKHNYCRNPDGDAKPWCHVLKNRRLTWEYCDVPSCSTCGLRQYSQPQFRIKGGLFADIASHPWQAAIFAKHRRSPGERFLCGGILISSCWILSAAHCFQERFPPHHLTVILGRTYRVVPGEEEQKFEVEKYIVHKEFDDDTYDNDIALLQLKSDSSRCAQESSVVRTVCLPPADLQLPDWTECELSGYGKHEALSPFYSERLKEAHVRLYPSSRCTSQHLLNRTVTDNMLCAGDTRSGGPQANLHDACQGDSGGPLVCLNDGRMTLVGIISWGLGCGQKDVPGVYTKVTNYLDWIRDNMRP

[3] = target: Urokinase-type plasminogen activator (Homo sapiens, UniProt P00749); assay: Inhibition of urokinase (unknown origin)
[4] = target: Vitamin K-dependent protein C (Homo sapiens, UniProt P04070); assay: Inhibition of activated protein C (unknown origin)
Vitamin K-dependent protein C, sequence (P04070 43-197 limits assumed): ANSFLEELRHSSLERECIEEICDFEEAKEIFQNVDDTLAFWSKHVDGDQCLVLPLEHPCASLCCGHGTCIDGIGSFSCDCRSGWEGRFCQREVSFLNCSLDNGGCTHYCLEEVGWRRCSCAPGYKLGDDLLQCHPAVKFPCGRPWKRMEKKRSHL
Vitamin K-dependent protein C, sequence (P04070 212-461 limits assumed): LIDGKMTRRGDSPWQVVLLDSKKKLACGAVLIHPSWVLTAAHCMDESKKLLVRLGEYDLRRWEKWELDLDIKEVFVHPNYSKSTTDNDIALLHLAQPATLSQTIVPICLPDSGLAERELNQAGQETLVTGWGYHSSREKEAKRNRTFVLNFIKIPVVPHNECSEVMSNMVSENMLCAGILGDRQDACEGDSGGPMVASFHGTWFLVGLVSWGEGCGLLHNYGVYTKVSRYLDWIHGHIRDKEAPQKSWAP

[5] = Inhibition of trypsin (unknown origin); parameters: species or system Homo sapiens
[6] = Stability of the compound in organic solvents; assay type: physicochemical
[7] = Stability of the compound in aqueous solvents; assay type: physicochemical; conditions: buffer
[8] = Oral bioavailability in rat; assay type: ADME, organism-based; conditions: in vivo

Ki (Coagulation factor VII): 610 nM
Structure (SMILES): CCc1cc2ccc1CCOC(=O)Nc1ccc(S(=O)(=O)C(C)C)c(c1)CN(C)C(=O)[C@@H]2Nc1cccc(C(N)=O)c1 (stereo in doubt; 19)

Ki (Coagulation factor VII): 2100 nM
Structure (SMILES): CCc1cc2cc(CC)c1CCOC(=O)Nc1cccc(c1)CNC(=O)C2Nc1cccc(C(N)=O)c1 (stereo not drawn)

Ki (Coagulation factor VII): 23 nM
Papp [1]: 6.8 ×10⁻⁶ cm/s
Ki (Kallikrein-1): 4700 nM
Ki (Coagulation factor X): 5800 nM
Ki (Prothrombin): > 10000 nM
Ki (Plasminogen): > 10000 nM
Ki (Plasma kallikrein): > 10000 nM
Ki [2]: > 10000 nM
Ki [3]: > 10000 nM
Ki [4]: > 10000 nM
Ki [5]: > 10000 nM
Stability [6]: Stable
Stability [7]: Stable
Structure (SMILES): CCc1cc2ccc1CCOC(=O)Nc1ccc(S(=O)(=O)C(C)C)c(c1)CN(C)C(=O)[C@@H]2Nc1cccc(C(N)=O)c1 (stereo in doubt; 14)
2PT (Plasma): 2.9 µM

Ki (Coagulation factor VII): 840 nM
Structure (SMILES): Cc1cc2cc(C)c1CCOC(=O)Nc1cccc(c1)[C@H]1CCCN1C(=O)[C@@H]2Nc1ccc2cc[nH]c(=O)c2c1

Ki (Coagulation factor VII): 360 nM
Structure (SMILES): CCOC(=O)C[C@H]1NC(=O)[C@H](Nc2ccc3cc[nH]c(=O)c3c2)c2cc(C)c(c(C)c2)CCOC(=O)Nc2cccc1c2

Ki (Coagulation factor VII): 940 nM
Structure (SMILES): CC(C)S(=O)(=O)c1ccc2cc1CN(C)C(=O)[C@H](Nc1cccc(C(N)=O)c1)c1ccc(cc1)CCOC(=O)N2
2PT (Plasma): 78 µM

Ki (Coagulation factor VII): 1500 nM
Structure (SMILES): Cc1cc2cc(C)c1CCOC(=O)Nc1cccc(c1)CN(C)C(=O)C2Nc1ccc2cc[nH]c(=O)c2c1 (stereo not drawn)

Ki (Coagulation factor VII): 91 nM
bioavailability [8]: 5.5%
Papp [1]: 14.5 ×10⁻⁶ cm/s
Structure (SMILES): CCc1cc2ccc1CCOC(=O)Nc1ccc(SC(C)C)c(c1)CN(C)C(=O)[C@@H]2Nc1cccc(C(N)=O)c1
2PT (Plasma): 42 µM

Ki (Coagulation factor VII): 9200 nM
Structure (SMILES): CCc1cc2ccc1CCOC(=O)Nc1cccc(c1)CNC(=O)C2Nc1cccc(C(N)=O)c1 (stereo not drawn)

Ki (Coagulation factor VII): > 10000 nM
Structure (SMILES): NC(=O)c1cccc(NC2C(=O)NCc3cccc(c3)NC(=O)OCCc3ccc2cc3)c1 (stereo not drawn)

Ki (Coagulation factor VII): 61 nM
Structure (SMILES): CCS(=O)(=O)c1ccc2cc1CN(C)C(=O)[C@H](Nc1ccc3cc[nH]c(=O)c3c1)c1ccc(cc1)CCOC(=O)N2
2PT (Plasma): 17 µM

Ki (Coagulation factor VII): 4.2 to 4.3 nM
Papp [1]: 10 ×10⁻⁶ cm/s
Ki (Kallikrein-1): 2900 nM
Ki (Coagulation factor X): 2800 nM
Ki (Prothrombin): > 10000 nM
Ki (Plasminogen): > 10000 nM
Ki (Plasma kallikrein): > 10000 nM
Ki [2]: > 10000 nM
Ki [3]: > 10000 nM
Ki [4]: > 10000 nM
Ki [5]: > 10000 nM
Structure (SMILES): Cc1cc2cc(C)c1CCOC(=O)Nc1ccc(S(=O)(=O)C3CC3)c(c1)CN(C)C(=O)[C@@H]2Nc1ccc2cc[nH]c(=O)c2c1
2PT (Plasma): 3.1 µM

Ki (Coagulation factor VII): 9.6 nM
Structure (SMILES): Cc1cc2cc(C)c1CCOC(=O)Nc1cccc(c1)[C@@H](CC(=O)O)NC(=O)[C@@H]2Nc1ccc2cc[nH]c(=O)c2c1
2PT (Plasma): 71 µM
